From ChEMBL document CHEMBL5137054, “Xyloketal B Reverses Nutritional Hepatic Steatosis, Steatohepatitis, and Liver Fibrosis through Activation of the PPARα/PGC1α Signaling Pathway” (J Nat Prod, 2022)
Activity calls are given as the source filed them.

Key:
[1] = Toxicity in C57BL/6J mouse assessed as effect on serum glucose level at 40 mg/kg, ip; format: organism-based; details: in vivo
[2] = system: Mus musculus; assay: Reduction in hepatic steatosis in HFD-induced C57BL/6J mouse model of NAFL assessed as reduction in serum glucose level at 20 to 40 mg/kg/day, ip administered from week 7 to week 12; format: functional, organism-based; details: dose 20-40 mg/kg/day, time 6.0 weeks
[3] = system: Mus musculus; assay: Upregulation of Cyp4a10 gene transcriptional level in HFD-induced C57BL/6J mouse model of NAFL at 20 to 40 mg/kg/day, ip administered from week 7 to week 12 by qRT-PCR analysis; format: functional, organism-based; details: dose 20-40 mg/kg/day, time 6.0 weeks
[4] = Toxicity in C57BL/6J mouse assessed as effect on body weight at 40 mg/kg, ip; format: organism-based; details: in vivo
[5] = system: HepG2; assay: Inhibition of FFA-induced lipid accumulation in human HepG2 cells incubated for 24 hrs by Oil Red O staining based spectrophotometric analysis; format: functional, cell-based; details: dose 50-100 µM, DDE = dose-dependent effect
[6] = system: Mus musculus; assay: Upregulation of carnitine O-palmitoyltransferase-1B enzyme expression in liver of HFD-induced C57BL/6J mouse model of NAFL at 15 mg/kg/day, ip administered from week 7 to week 12 by immunoblotting analysis; format: functional, organism-based; details: time 6.0 weeks
[7] = system: Mus musculus; assay: Antifibrotic activity against MCD-induced C57BL/6J mouse model of liver fibrosis assessed as reduction in MMP2 level in liver administered intraperitoneally from week 3 to week 6 by immunoblotting analysis; format: functional, organism-based; details: dose 20-40 mg/kg, route ip, time 4.0 weeks, DDE = dose-dependent effect
[8] = system: Mus musculus; assay: Reduction in hepatic steatosis in HFD-induced C57BL/6J mouse model of NAFL assessed as reduction in HFD-induced relative liver weight at 20 to 40 mg/kg/day, ip administered from week 7 to week 12; format: functional, organism-based; details: dose 20-40 mg/kg/day, time 6.0 weeks
[9] = system: Mus musculus; assay: Reduction in hepatic steatosis in HFD-induced C57BL/6J mouse model of NAFL assessed as reduction in serum cholesterol level at 20 to 40 mg/kg/day, ip administered from week 7 to week 12; format: functional, organism-based; details: dose 20-40 mg/kg/day, time 6.0 weeks
[10] = system: Mus musculus; assay: Reduction in hepatic steatosis in HFD-induced C57BL/6J mouse model of NAFL assessed as reduction in number of lipid droplets in hepatocytes at 20 to 40 mg/kg/day, ip administered from week 7 to week 12 by H&E staining analysis; format: functional, organism-based; details: dose 20-40 mg/kg/day, time 6.0 weeks
[11] = Toxicity in C57BL/6J mouse assessed as effect on relative liver weight at 40 mg/kg, ip; format: organism-based; details: in vivo
[12] = system: Mus musculus; assay: Anti-inflammatory activity against MCD-induced C57BL/6J mouse model of nonalcoholic steatohepatitis assessed as downregulation of interleukin 6 expression in liver at 20 to 40 mg/kg/day, ip administered from week 3 to week 4 by immunoblotting analysis analysis; format: functional, organism-based; details: dose 20-40 mg/kg/day, time 2.0 weeks
[13] = system: Mus musculus; assay: Antifibrotic activity against MCD-induced C57BL/6J mouse model of liver fibrosis assessed as reduction in MMP3 level in liver administered intraperitoneally from week 3 to week 6 by immunoblotting analysis; format: functional, organism-based; details: dose 20-40 mg/kg, route ip, time 4.0 weeks, DDE = dose-dependent effect
[14] = system: Mus musculus; assay: Antifibrotic activity against MCD-induced C57BL/6J mouse model of liver fibrosis assessed as reduction in TIMP1 level in liver administered intraperitoneally from week 3 to week 6 by immunoblotting analysis; format: functional, organism-based; details: dose 20-40 mg/kg, route ip, time 4.0 weeks, DDE = dose-dependent effect
[15] = system: Mus musculus; assay: Upregulation of peroxisomal acyl-coenzyme A oxidase-2 enzyme expression in liver of HFD-induced C57BL/6J mouse model of NAFL administered intraperitoneally from week 7 to week 12 by immunoblotting analysis; format: functional; details: dose 20-40 mg/kg/day, route ip, time 6.0 weeks, DDE = dose-dependent effect
[16] = system: Mus musculus; assay: Reduction in hepatic steatosis in HFD-induced C57BL/6J mouse model of NAFL assessed as increase in serum ApoE level at 20 to 40 mg/kg/day, ip administered from week 7 to week 12; format: functional, organism-based; details: dose 20-40 mg/kg/day, time 6.0 weeks
[17] = Toxicity in C57BL/6J mouse assessed as effect on serum AST level at 40 mg/kg, ip; format: organism-based; details: in vivo
[18] = system: Mus musculus; assay: Antifibrotic activity against MCD-induced C57BL/6J mouse model of liver fibrosis assessed as reduction in TGFbeta level in liver administered intraperitoneally from week 3 to week 6 by immunoblotting analysis; format: functional, organism-based; details: dose 20-40 mg/kg, route ip, time 4.0 weeks, DDE = dose-dependent effect
[19] = Toxicity in C57BL/6J mouse assessed as effect on serum LDL level at 40 mg/kg, ip; format: organism-based; details: in vivo
[20] = Toxicity in C57BL/6J mouse assessed as effect on lipid droplets in hepatocytes at 40 mg/kg, ip by H&E staining analysis; format: organism-based; details: in vivo
[21] = system: Mus musculus; assay: Reduction in hepatic steatosis in HFD-induced C57BL/6J mouse model of NAFL assessed as reduction in serum AST level at 20 to 40 mg/kg/day, ip administered from week 7 to week 12; format: functional, organism-based; details: dose 20-40 mg/kg/day, time 6.0 weeks
[22] = system: Mus musculus; assay: Upregulation of ACAA1 enzyme expression in liver of HFD-induced C57BL/6J mouse model of NAFL administered intraperitoneally from week 7 to week 12 by immunoblotting analysis; format: functional; details: dose 20-40 mg/kg/day, route ip, time 6.0 weeks, DDE = dose-dependent effect
[23] = system: Mus musculus; assay: Upregulation of peroxisomal acyl-coenzyme A oxidase-1 enzyme expression in liver of HFD-induced C57BL/6J mouse model of NAFL at 15 mg/kg/day, ip administered from week 7 to week 12 by immunoblotting analysis; format: functional, organism-based; details: time 6.0 weeks
[24] = system: Mus musculus; assay: Reduction in hepatic steatosis in HFD-induced C57BL/6J mouse model of NAFL assessed as reduction in serum ALT level at 20 to 40 mg/kg/day, ip administered from week 7 to week 12; format: functional, organism-based; details: dose 20-40 mg/kg/day, time 6.0 weeks
[25] = system: Mus musculus; assay: Upregulation of peroxisomal bifunctional enzyme gene transcriptional level in HFD-induced C57BL/6J mouse model of NAFL at 20 to 40 mg/kg/day, ip administered from week 7 to week 12 by qRT-PCR analysis; format: functional, organism-based; details: dose 20-40 mg/kg/day, time 6.0 weeks
[26] = system: Mus musculus; assay: Reduction in hepatic steatosis in HFD-induced C57BL/6J mouse model of NAFL assessed as reduction in serum triglyceride level at 20 to 40 mg/kg/day, ip administered from week 7 to week 12; format: functional, organism-based; details: dose 20-40 mg/kg/day, time 6.0 weeks
[27] = system: Mus musculus; assay: Antifibrotic activity against MCD-induced C57BL/6J mouse model of liver fibrosis assessed as reduction in alphaSMA level in liver at 20 to 40 mg/kg, ip administered from week 3 to week 6 by […]; format: functional, organism-based; details: dose 20-40 mg/kg, time 4.0 weeks
[28] = system: Mus musculus; assay: Anti-inflammatory activity against MCD-induced C57BL/6J mouse model of nonalcoholic steatohepatitis assessed as reduction in necroinflammation foci in liver at 20 to 40 mg/kg/day, ip administered from week 3 to week 4 by H&E staining based light microscopic analysis; format: functional, organism-based; details: dose 20-40 mg/kg/day, time 2.0 weeks
[29] = system: Mus musculus; assay: Upregulation of carnitine O-palmitoyltransferase-1B enzyme expression in liver of HFD-induced C57BL/6J mouse model of NAFL administered intraperitoneally from week 7 to week 12 by immunoblotting analysis; format: functional; details: dose 20-40 mg/kg/day, route ip, time 6.0 weeks, DDE = dose-dependent effect
[30] = system: Mus musculus; assay: Upregulation of Cyp4a14 gene transcriptional level in HFD-induced C57BL/6J mouse model of NAFL at 20 to 40 mg/kg/day, ip administered from week 7 to week 12 by qRT-PCR analysis; format: functional, organism-based; details: dose 20-40 mg/kg/day, time 6.0 weeks

C[C@H]1CO[C@]2(C)Oc3cc(O)c4c(c3C[C@H]12)O[C@@]1(C)OC[C@H](C)[C@H]1C4
Non-Toxic: Activity [1] | Activity [4] | Activity [11] | Activity [17] | Activity [19] | Activity [20]
active: Activity [2] | Activity [3] | inhibition [5] Dde | Activity [6] | Activity [7] Dde | Activity [8] | Activity [9] | Activity [10] | Activity [12] | Activity [13] Dde | Activity [14] Dde | Activity [15] Dde | Activity [16] | Activity [18] Dde | Activity [21] | Activity [22] Dde | Activity [23] | Activity [24] | Activity [25] | Activity [26] | Activity [27] | Activity [28] | Activity [29] Dde | Activity [30]
